Reference: PMC8495876 (ACS Omega, 2021)

Assays:
[1] = target: human lysosomal α-glucosidase (Homo sapiens, UniProt P10253); assay: α-glucosidase inhibitory activity assay; type: biochemical; settings: 1.43 mM compound; lysosomal α-glucosidase extracts; pH 4.0, 37 °C
α-glucosidase = settings: previously reported; cited from earlier work

Compound: 1-(α-D-Glucopyranosyl)-4-cyano-phenyl-[1,2,3]-triazole [AGT3]
- α-glucosidase inhibition (%) [1]: 46%

Compound: 1-(α-D-Glucopyranosyl)-4-nitro-phenyl-[1,2,3]-triazole [AGT5]
- α-glucosidase inhibition (%) [1]: 57%

Compound: O=c1cc(-c2ccccc2)oc2cc(O)cc(O)c12 [chrysin]
- IC50 (α-glucosidase): 77 µM
